In article PMC11345841, “Exploring 2-Sulfonylpyrimidine Warheads as Acrylamide Surrogates for Targeted Covalent Inhibition: A BTK Story” (Journal of Medicinal Chemistry, 2024):
Read-outs that look alike come from different tables or passages of the source.

What was measured:
Assay in all cases: KINOMEscan ScanTK
Format in all cases: binding
[1] = target: T1, ABL1(F317I)-nonphosphorylated (Homo sapiens, UniProt P00519, F317I)
T1 construct: purchased Eurofins DiscoverX KINOMEscan (scanTK)

[2] = target: T2, ABL1(F317I)-phosphorylated (Homo sapiens, UniProt P00519, F317I)
T2 construct: purchased Eurofins DiscoverX KINOMEscan (scanTK)
T2 sequence (P00519 whole entry F317I): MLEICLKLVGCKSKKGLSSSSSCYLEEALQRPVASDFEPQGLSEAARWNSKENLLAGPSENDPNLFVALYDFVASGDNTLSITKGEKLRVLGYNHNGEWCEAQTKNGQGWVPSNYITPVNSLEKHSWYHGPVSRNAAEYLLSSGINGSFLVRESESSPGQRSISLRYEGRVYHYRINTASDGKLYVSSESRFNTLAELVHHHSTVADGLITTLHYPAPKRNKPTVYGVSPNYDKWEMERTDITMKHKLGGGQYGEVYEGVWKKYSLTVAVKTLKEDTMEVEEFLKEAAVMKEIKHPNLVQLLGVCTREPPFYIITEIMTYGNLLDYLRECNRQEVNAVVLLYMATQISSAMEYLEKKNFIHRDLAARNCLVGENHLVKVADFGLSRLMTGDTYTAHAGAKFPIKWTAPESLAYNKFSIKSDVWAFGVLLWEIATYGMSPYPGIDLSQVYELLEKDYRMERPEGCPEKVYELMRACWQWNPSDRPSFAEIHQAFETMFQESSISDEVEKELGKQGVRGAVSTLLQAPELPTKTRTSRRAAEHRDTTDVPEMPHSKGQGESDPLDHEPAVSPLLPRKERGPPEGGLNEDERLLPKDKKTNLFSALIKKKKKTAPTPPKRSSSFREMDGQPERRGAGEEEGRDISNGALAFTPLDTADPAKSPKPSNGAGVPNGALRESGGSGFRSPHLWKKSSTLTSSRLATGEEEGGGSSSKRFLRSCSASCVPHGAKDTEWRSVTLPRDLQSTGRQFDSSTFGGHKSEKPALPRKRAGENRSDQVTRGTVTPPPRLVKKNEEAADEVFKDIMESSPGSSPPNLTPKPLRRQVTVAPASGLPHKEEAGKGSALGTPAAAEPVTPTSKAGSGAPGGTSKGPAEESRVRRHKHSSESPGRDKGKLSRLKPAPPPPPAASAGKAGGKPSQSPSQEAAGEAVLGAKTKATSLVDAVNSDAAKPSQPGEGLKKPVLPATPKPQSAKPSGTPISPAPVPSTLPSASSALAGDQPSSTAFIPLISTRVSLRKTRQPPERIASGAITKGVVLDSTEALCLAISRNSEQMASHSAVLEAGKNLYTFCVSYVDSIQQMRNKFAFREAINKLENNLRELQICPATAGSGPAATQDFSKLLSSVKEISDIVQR

DDR2 = target: T3, DDR2 (Homo sapiens, UniProt Q16832)
T3 construct: purchased Eurofins DiscoverX KINOMEscan (scanTK)
T3 sequence (Q16832 22-855): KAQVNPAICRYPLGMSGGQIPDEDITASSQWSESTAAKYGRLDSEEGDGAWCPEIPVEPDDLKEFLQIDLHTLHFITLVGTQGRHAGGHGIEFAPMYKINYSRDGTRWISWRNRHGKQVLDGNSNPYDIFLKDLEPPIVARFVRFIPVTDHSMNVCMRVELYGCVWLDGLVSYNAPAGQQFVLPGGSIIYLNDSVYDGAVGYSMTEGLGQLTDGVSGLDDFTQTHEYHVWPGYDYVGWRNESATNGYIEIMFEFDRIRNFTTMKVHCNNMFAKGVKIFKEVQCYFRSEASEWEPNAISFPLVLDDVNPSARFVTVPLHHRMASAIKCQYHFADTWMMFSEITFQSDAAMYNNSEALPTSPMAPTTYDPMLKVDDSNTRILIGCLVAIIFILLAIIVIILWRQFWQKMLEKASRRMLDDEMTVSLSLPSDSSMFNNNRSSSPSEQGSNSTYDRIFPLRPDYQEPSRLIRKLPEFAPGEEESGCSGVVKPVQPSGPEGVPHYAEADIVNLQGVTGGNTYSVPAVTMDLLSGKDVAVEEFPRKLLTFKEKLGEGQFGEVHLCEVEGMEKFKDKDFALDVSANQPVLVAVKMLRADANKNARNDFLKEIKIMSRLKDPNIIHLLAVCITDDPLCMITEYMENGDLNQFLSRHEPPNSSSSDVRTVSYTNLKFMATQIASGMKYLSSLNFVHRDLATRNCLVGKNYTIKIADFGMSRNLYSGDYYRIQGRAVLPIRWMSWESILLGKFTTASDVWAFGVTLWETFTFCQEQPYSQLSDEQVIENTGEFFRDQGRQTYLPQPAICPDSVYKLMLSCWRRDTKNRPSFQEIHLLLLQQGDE

EGFR(L747-T751del,Sins) = details: for %Control / % difference (compound - Ib %Control): @1000nM
EPHA5 = target: T4, EPHA5 (Homo sapiens, UniProt P54756)
T4 construct: purchased Eurofins DiscoverX KINOMEscan (scanTK)
T4 sequence (P54756 25-1037): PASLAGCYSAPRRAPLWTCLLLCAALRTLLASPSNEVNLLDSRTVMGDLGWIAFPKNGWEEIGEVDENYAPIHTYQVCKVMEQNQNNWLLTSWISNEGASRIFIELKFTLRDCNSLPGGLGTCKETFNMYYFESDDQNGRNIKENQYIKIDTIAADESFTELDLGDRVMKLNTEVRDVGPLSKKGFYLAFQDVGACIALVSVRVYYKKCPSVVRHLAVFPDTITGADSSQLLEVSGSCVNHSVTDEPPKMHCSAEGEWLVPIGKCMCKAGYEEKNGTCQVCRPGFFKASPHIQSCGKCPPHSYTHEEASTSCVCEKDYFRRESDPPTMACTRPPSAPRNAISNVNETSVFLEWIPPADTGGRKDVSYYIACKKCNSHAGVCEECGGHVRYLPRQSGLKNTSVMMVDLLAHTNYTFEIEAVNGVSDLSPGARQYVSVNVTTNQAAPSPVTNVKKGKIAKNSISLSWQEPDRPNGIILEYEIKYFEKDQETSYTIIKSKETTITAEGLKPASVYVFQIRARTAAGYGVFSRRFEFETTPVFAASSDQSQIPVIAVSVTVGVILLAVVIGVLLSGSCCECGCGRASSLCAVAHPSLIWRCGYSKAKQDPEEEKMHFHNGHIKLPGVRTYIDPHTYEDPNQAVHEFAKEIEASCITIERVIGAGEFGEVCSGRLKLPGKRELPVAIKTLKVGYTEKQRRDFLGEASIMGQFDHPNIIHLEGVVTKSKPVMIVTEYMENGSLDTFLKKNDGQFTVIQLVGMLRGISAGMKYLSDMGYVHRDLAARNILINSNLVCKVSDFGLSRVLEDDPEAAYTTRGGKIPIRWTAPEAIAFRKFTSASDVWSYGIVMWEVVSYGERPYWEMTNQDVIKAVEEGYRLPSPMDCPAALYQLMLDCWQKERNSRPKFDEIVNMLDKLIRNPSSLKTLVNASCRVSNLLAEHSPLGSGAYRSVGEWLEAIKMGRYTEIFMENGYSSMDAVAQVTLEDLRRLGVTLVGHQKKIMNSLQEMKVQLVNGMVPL

FGFR1 = target: T5, FGFR1 (Homo sapiens, UniProt P11362)
T5 construct: purchased Eurofins DiscoverX KINOMEscan (scanTK)

FGFR2 = target: T6, FGFR2 (Homo sapiens, UniProt P21802)
T6 construct: purchased Eurofins DiscoverX KINOMEscan (scanTK)

FGFR3(G697C) = target: T7, FGFR3(G697C) (Homo sapiens, UniProt P22607, G697C)
T7 construct: purchased Eurofins DiscoverX KINOMEscan (scanTK)

TRKB = target: T8, TRKB (Homo sapiens, UniProt Q16620)
T8 construct: purchased Eurofins DiscoverX KINOMEscan (scanTK)
T8 sequence (Q16620 32-822): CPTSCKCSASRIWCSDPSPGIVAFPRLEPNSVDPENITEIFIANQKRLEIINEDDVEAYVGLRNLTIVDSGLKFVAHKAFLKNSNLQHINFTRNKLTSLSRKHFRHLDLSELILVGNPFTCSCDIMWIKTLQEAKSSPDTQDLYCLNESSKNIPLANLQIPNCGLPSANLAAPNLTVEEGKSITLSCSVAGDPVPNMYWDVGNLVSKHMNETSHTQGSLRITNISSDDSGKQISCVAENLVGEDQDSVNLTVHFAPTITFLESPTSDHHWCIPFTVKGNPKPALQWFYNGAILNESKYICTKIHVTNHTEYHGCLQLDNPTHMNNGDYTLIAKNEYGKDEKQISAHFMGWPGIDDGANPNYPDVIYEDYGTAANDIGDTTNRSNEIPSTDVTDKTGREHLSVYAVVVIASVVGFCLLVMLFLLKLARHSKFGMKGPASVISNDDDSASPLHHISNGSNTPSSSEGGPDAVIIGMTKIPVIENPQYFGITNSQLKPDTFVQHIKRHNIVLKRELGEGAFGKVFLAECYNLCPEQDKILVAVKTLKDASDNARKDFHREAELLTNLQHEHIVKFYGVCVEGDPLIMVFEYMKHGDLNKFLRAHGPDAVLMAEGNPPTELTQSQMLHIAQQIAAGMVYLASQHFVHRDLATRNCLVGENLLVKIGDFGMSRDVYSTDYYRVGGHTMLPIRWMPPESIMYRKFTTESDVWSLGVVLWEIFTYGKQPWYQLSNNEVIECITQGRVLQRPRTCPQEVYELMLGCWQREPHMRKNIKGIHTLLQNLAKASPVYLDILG

EGFR = target: T9, EGFR (Homo sapiens, UniProt P00533); details: for difference in %Control versus reference compound Ib at 1 µM / remaining binding at 1 µM: EGFR; for inhibition at 1 µM: ScanTK, WT EGFR
T9 construct: purchased Eurofins DiscoverX KINOMEscan (scanTK)

EGFR(L858R,T790M) = target: T10, EGFR(L858R,T790M) (Homo sapiens, UniProt P00533, L858R/T790M)
T10 construct: purchased Eurofins DiscoverX KINOMEscan (scanTK)
T10 sequence (P00533 25-1210 T790M/L858R): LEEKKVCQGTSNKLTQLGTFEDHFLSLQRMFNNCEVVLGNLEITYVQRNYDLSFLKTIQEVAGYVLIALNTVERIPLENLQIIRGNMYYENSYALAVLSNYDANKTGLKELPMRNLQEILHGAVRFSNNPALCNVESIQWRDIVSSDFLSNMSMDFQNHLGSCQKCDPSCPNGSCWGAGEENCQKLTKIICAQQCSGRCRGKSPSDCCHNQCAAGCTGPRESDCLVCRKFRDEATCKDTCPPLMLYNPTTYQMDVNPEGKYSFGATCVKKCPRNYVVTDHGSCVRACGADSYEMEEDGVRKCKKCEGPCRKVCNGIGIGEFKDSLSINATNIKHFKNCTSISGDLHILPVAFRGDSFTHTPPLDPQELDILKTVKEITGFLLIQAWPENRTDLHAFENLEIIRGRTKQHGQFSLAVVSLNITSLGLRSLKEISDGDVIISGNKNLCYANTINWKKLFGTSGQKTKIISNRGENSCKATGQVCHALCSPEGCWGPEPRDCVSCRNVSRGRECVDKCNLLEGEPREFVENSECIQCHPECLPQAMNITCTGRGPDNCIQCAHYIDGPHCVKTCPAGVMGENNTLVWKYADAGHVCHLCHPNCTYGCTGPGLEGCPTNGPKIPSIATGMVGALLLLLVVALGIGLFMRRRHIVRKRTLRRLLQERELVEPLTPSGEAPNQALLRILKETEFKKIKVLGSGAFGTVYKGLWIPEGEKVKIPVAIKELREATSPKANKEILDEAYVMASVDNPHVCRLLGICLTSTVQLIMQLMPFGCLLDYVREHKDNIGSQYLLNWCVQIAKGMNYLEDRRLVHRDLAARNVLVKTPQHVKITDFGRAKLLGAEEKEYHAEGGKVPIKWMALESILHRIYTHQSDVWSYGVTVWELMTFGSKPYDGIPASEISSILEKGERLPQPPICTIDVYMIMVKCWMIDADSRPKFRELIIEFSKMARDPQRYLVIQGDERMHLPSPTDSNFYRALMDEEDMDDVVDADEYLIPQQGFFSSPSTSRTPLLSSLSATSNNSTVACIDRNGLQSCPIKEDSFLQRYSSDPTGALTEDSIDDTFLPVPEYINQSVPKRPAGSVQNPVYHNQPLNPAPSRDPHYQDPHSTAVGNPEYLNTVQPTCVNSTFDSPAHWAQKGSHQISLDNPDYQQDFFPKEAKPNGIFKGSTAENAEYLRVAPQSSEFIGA

KIT(A829P) = target: T11, KIT(A829P) (Homo sapiens, UniProt P10721, A829P)
T11 construct: purchased Eurofins DiscoverX KINOMEscan (scanTK)
T11 sequence (P10721 26-976 A829P): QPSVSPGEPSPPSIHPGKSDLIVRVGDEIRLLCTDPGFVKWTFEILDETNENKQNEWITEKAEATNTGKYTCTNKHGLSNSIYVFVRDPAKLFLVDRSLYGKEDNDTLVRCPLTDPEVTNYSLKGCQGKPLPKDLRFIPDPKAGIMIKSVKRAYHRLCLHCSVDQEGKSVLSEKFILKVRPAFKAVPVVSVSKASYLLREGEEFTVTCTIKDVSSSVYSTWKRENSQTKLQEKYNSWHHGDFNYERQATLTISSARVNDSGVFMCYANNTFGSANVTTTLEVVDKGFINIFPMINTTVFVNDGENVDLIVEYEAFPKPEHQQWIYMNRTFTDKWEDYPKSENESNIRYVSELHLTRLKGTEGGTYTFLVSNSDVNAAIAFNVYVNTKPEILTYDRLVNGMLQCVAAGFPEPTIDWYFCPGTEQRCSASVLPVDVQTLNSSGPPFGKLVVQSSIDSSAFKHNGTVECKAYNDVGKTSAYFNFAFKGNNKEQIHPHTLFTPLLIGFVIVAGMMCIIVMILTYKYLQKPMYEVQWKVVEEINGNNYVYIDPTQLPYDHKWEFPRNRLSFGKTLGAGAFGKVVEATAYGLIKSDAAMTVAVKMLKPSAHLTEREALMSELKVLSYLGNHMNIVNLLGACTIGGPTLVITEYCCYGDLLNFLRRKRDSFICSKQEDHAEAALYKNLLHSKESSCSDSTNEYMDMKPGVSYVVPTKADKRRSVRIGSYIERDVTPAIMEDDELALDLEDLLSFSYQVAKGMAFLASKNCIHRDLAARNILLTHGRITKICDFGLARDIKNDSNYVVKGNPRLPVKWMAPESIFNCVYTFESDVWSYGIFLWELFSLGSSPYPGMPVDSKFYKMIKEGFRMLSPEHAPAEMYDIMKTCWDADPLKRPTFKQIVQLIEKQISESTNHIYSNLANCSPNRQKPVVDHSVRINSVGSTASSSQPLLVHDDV

MST1R = target: T12, MST1R (Homo sapiens, UniProt Q04912)
T12 construct: purchased Eurofins DiscoverX KINOMEscan (scanTK)

[3] = @1000nM, DDR2, read-out: %Control
[4] = DDR2, read-out: %Control @1000nM
[5] = @1000nM, TRKB, read-out: %Control
[6] = TRKB, read-out: %Control @1000nM

T1 sequence (P00519 whole entry F317I): as the sequence (P00519 whole entry F317I) above

Structure (SMILES) | remaining binding at 1 µM ([1]; @1000nM, read-out: %Control) | remaining binding at 1 µM ([1]; read-out: %Control @1000nM) | remaining binding at 1 µM ([2]; @1000nM, read-out: %Control) | remaining binding at 1 µM ([2]; read-out: %Control @1000nM) | %Control @1000nM (EGFR(L747-T751del,Sins)) | %Control (EGFR(L747-T751del,Sins)) | remaining binding at 1 µM (EPHA5; @1000nM, read-out: %Control) | remaining binding at 1 µM (EPHA5; read-out: %Control @1000nM) | remaining binding at 1 µM (FGFR1; @1000nM, read-out: %Control) | remaining binding at 1 µM (FGFR1; read-out: %Control @1000nM) | remaining binding at 1 µM (FGFR2; @1000nM, read-out: %Control) | remaining binding at 1 µM (FGFR2; read-out: %Control @1000nM) | remaining binding at 1 µM (FGFR3(G697C); @1000nM, read-out: %Control) | remaining binding at 1 µM (FGFR3(G697C); read-out: %Control @1000nM) | difference in %Control versus compound Ib at 1 µM ([1]; @1000nM) | difference in %Control from reference compound Ib at 1 µM ([2]; @1000nM) | difference in %Control from reference compound Ib at 1 µM (DDR2; @1000nM, DDR2) | remaining binding at 1 µM (DDR2; [3]) | remaining binding at 1 µM (DDR2; [4]) | difference in %Control versus reference compound Ib at 1 µM (EGFR; @1000nM) | also measured
C=CC(=O)N1CCC[C@@H](n2nc(-c3ccc(Oc4ccccc4)cc3)c3c(N)ncnc32)C1 [Compound 1g, Ibrutinib, reference compound] | 52% | 52% | 73% | 73% | 2.6% | 2.6% | 96% | 96% | 33% | 33% | 39% | 39% | 40% | 40% | – | – | – | – | – | – | remaining binding at 1 µM (DDR2; read-out: %Control): 97%; remaining binding at 1 µM (DDR2; read-out: %Control @1000nM): 97%; remaining binding at 1 µM (TRKB; read-out: %Control): 92%; remaining binding at 1 µM (TRKB; read-out: %Control @1000nM): 92%
Cc1cnc(S(C)(=O)=O)nc1N1CCCC(n2nc(-c3ccc(Oc4ccccc4)cc3)c3c(N)ncnc32)C1 (stereo not shown) [Compound 8a, 1-(1-(5-Methyl-2-(methylsulfonyl)pyrimidin-4-yl)piperidin-3-yl)-3-(4-phenoxyphenyl)-1H-pyrazolo[3,4-d]pyrimidin-4-amine] | 81% | 81% | 90% | 90% | 70% | 70% | 95% | 95% | 77% | 77% | 85% | 85% | 97% | 97% | 29% | 17% | -5% | 92% | 92% | 52.8% | remaining binding at 1 µM (EGFR; @1000nM, read-out: %Control): 53%; remaining binding at 1 µM (EGFR; read-out: %Control @1000nM): 53%; inhibition at 1 µM (EGFR): 47%; % difference (compound - Ib %Control) (EGFR(L747-T751del,Sins)): 67.4%; difference in % of control versus compound Ib at 1 µM (EGFR(L858R,T790M); @1000nM): 81%; remaining binding at 1 µM (EGFR(L858R,T790M); @1000nM, read-out: %Control): 91%; remaining binding at 1 µM (EGFR(L858R,T790M); read-out: %Control @1000nM): 91%; difference in %Control from compound Ib at 1 µM (EPHA5; @1000nM): -1%; difference in %Control from compound Ib at 1 µM (FGFR1; @1000nM): 44%; difference in %Control vs compound Ib at 1 µM (FGFR2; @1000nM): 46%; difference in %Control versus compound Ib at 1 µM (FGFR3(G697C); @1000nM): 57%; remaining binding at 1 µM (KIT(A829P); @1000nM, read-out: %Control): 84%; remaining binding at 1 µM (KIT(A829P); read-out: %Control @1000nM): 84%; remaining binding at 1 µM (MST1R; @1000nM, read-out: %Control): 100%; remaining binding at 1 µM (MST1R; read-out: %Control @1000nM): 100%; difference in %Control versus compound Ib at 1 µM (TRKB; @1000nM, TRKB): -17%; remaining binding at 1 µM (TRKB; [5]): 75%; remaining binding at 1 µM (TRKB; [6]): 75%
COC(=O)c1cnc(S(C)(=O)=O)nc1N1CCCC(n2nc(-c3ccc(Oc4ccccc4)cc3)c3c(N)ncnc32)C1 (stereo not shown) [Compound 8b, Methyl 4-(3-(4-Amino-3-(4-phenoxyphenyl)-1H-pyrazolo[3,4-d]pyrimidin-1-yl)piperidin-1-yl)-2-(methylsulfonyl)pyrimidine-5-carboxylate] | 82% | 82% | 79% | 79% | 65% | 65% | 100% | 100% | 49% | 49% | 86% | 86% | 84% | 84% | 30% | 6% | -6% | 91% | 91% | 32.8% | remaining binding at 1 µM (EGFR; @1000nM, read-out: %Control): 33%; remaining binding at 1 µM (EGFR; read-out: %Control @1000nM): 33%; inhibition at 1 µM (EGFR): 67%; % difference (compound - Ib %Control) (EGFR(L747-T751del,Sins)): 62.4%; difference in % of control versus compound Ib at 1 µM (EGFR(L858R,T790M); @1000nM): 69%; remaining binding at 1 µM (EGFR(L858R,T790M); @1000nM, read-out: %Control): 79%; remaining binding at 1 µM (EGFR(L858R,T790M); read-out: %Control @1000nM): 79%; difference in %Control from compound Ib at 1 µM (EPHA5; @1000nM): 4%; difference in %Control from compound Ib at 1 µM (FGFR1; @1000nM): 16%; difference in %Control vs compound Ib at 1 µM (FGFR2; @1000nM): 47%; difference in %Control versus compound Ib at 1 µM (FGFR3(G697C); @1000nM): 44%; remaining binding at 1 µM (KIT(A829P); @1000nM, read-out: %Control): 70%; remaining binding at 1 µM (KIT(A829P); read-out: %Control @1000nM): 70%; remaining binding at 1 µM (MST1R; @1000nM, read-out: %Control): 96%; remaining binding at 1 µM (MST1R; read-out: %Control @1000nM): 96%; difference in %Control versus compound Ib at 1 µM (TRKB; @1000nM, TRKB): 7%; remaining binding at 1 µM (TRKB; [5]): 99%; remaining binding at 1 µM (TRKB; [6]): 99%
